Paper PMC7904743, “WIDOCK: a reactive docking protocol for virtual screening of covalent inhibitors” (Journal of Computer-Aided Molecular Design, 2021)
Read-outs that look alike come from different tables or passages of the source.

Columns and labels:
[1] = target: T1, MurA (Escherichia coli, UniProt P0A749); test: biochemical; conditions: read-out: RA
Method: (§1) These fragments were measured in single point enzyme activity assays at 100 μM concentration against MurA and CatB.

[2] = cited from earlier work
[3] = target: T2, CatB (Homo sapiens, UniProt P07858); design: method as in PMID 30321804; conditions: residual activity at 100 μM, single point; cited from earlier work
[4] = target: T3, Recombinant human microsomal MAO-A (Homo sapiens, UniProt P21397); test: MAO-A activity assay (fluorimetric, Amplex Red, p-tyramine); type: biochemical; conditions: MAO-A residual activity; active if lower than 60%
T3 construct: purchased Sigma Aldrich; host or cells: baculovirus infected insect cells (BTI-TN-5B1-4)
T3 sequence (P21397 1-527): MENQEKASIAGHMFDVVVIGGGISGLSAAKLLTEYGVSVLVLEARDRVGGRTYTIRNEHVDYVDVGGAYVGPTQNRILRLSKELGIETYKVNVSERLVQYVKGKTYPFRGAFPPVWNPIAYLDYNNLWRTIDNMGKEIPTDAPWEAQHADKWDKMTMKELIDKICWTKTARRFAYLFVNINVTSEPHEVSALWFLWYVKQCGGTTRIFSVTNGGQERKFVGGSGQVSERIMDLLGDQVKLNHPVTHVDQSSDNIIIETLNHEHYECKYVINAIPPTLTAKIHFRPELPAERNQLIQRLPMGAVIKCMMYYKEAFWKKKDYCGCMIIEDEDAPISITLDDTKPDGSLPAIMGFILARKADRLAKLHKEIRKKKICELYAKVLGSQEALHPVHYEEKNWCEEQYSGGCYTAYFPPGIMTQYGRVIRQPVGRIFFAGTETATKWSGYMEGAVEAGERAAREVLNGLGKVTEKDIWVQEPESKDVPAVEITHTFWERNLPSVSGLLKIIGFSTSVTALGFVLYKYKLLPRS
Method: The effects of the test compounds on MAO-A were investigated using a fluorimetric assay, following a previously described methodology. The inhibitory activity of the compounds was evaluated by their effects on the production of hydrogen peroxide (H2O2) from p-tyramine. The production of H2O2 was detected using Amplex Red reagent in the presence of horseradish peroxidase, where a highly sensitive fluorescent product, resorufin, is produced at stoichiometric amounts. Recombinant human microsomal MAO-A enzyme expressed in baculovirus infected insect cells (BTI-TN-5B1-4), horse-radish peroxidase (type II, lyophilized powder), and p-tyramine hydrochloride were obtained from Sigma Aldrich. 10-Acetyl-3,7-dihydroxyphenoxazine (Amplex Red reagent) was synthesized as described in the literature.
Briefly, 100 µL 50 mM sodium phosphate buffer (pH 7.4, 0.05% Triton X-114) containing the compounds and MAO-A were incubated for 30 min at 37 °C in a flat-bottomed black 96-well microplate, and placed in a dark microplate reader chamber. After the pre-incubation, the reaction was started by adding the final concentrations of 200 µM Amplex Red reagent, 2 U/mL horseradish peroxidase, and 1 mM p-tyramine (final volume, 200 µL). The production of resorufin was quantified based on the fluorescence generated (λex = 530 nm, λem = 590 nm) at 37 °C over a period of 30 min, during which time the fluorescence increased linearly. For control experiments, DMSO was used instead of the appropriate dilutions of the compounds in DMSO. To determine the blank value (b), phosphate-buffered solution replaced the enzyme solution. The initial velocities were calculated from the trends obtained, with each measurement carried out in duplicate. The specific fluorescence emission to obtain the final result was calculated after subtraction of the blank activity (b).

[5] = target: T2, CatB; test: CatB single point enzyme activity assay (residual activity); conditions: read-out: RA
Method: as §1

[6] = Kinetic measurement of adduct formation with L-glutathione (GSH) by HPLC–MS; type: physicochemical; design: unit not given here
Method: Electrophilic fragments tested against MurA, CatB and MAO-A (25–53, structures shown in Supporting Figure S2 and SMILES provided in Supporting Table S1) represent eight different warhead chemotypes reacting via two reaction mechanisms: Michael-type nucleophilic addition and nucleophilic substitution. The intrinsic thiol reactivities (see Table 1) were determined by kinetic measurement of adduct formation with L-glutathione (GSH), a widely used cysteine surrogate, by an HPLC–MS methodology, as described in the referred study.

[7] = target: T1, MurA; conditions: residual activity at 100 μM, single point; cited from earlier work
[8] = thiol reactivity, cited from earlier work
[9] = system: OTUB2; conditions: experimental actives if % labeling higher than 50%, cited from earlier work
[10] = system: NUDT7; conditions: protein labeling at 200 μM; experimental actives if % labeling higher than 50%; cited from earlier work
[11] = natural log of average rate constant k
[12] = natural logarithm of average rate constant
[13] = natural log of average kinetic rate constant
[14] = natural log of average rate constant

T1 sequence (P0A749 whole entry): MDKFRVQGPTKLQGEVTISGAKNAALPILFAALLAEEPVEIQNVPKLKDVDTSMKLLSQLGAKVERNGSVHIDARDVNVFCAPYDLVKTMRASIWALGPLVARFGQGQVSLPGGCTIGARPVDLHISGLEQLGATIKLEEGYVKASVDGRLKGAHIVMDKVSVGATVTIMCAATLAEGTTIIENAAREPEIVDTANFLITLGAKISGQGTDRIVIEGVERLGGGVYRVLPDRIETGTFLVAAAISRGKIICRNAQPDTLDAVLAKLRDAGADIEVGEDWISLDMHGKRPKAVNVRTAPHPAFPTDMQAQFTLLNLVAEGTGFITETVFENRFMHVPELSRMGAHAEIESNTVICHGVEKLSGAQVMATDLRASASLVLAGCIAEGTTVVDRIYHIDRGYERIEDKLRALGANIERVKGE

Structure (SMILES)	ln(avg k) [8, 11]	ln(avg k) [8, 12]	OTUB2 % labeling [9] [%]	NUDT7 % labeling [10] [%]	ln(avg k) [8, 13]	ln(avg k) [8, 14]	OTUB2 % labeling ([9]; OTUB2 protein labeling) [%]	other results
O=S(=O)(/C=C/c1ccccc1)c1ccccc1 [Compound 35, O=S(=O)(/C=C/c1ccccc1)c1ccccc1]								remaining activity at 100 µM [1]: 82%; GSH half-life ([2]; half-life of adduct formation with L-glutathione): 94.3 h; CatB RA (%) [3]: 77%; RA [4]: 87%; remaining activity at 100 µM [5]: 77%; Reactivity, Experimental ln(k) vs GSH [6]: -4.913; MurA RA (%) [7]: 82%
COC(=O)/C=C/C(=O)OC [Compound 25, COC(=O)/C=C/C(=O)OC]								remaining activity at 100 µM [1]: 50%; CatB RA (%) [3]: 106%; RA [4]: 80%; remaining activity at 100 µM [5]: 106%; MurA RA (%) [7]: 50%
C=CS(=O)(=O)c1ccccc1 [Compound 34, C=CS(=O)(=O)c1ccccc1]								remaining activity at 100 µM [1]: 12%; lnk ([2]; […]): 1.45; CatB RA (%) [3]: 87%; RA [4]: 52%; remaining activity at 100 µM [5]: 87%; MurA RA (%) [7]: 12%
C=CC(=O)Nc1ccccc1 [Compound 30, C=CC(=O)Nc1ccccc1]								remaining activity at 100 µM [1]: 78%; CatB RA (%) [3]: 88%; RA [4]: 99%; remaining activity at 100 µM [5]: 88%; MurA RA (%) [7]: 78%
O=C(CCl)Nc1ccccc1 [Compound 48, O=C(CCl)Nc1ccccc1]								remaining activity at 100 µM [1]: 110%; CatB RA (%) [3]: 88%; RA [4]: 95%; remaining activity at 100 µM [5]: 88%; MurA RA (%) [7]: 110%
CN(Cc1ccco1)C(=O)CCl [PCM-0102672, CN(Cc1ccco1)C(=O)CCl]	-15.763	-15.763	0	10				
O=C(CCl)NC12CC3CC(CC(C3)C1)C2 [PCM-0102118, O=C(CCl)NC12CC3CC(CC(C3)C1)C2]	-16.476	-16.476	0	0				
CCC1CCCCN1C(=O)CCl (stereo not drawn) [PCM-0102828, CCC1CCCCN1C(=O)CCl]				4	-16.282	-16.282	0	
NC(=O)C1CCN(C(=O)CCl)CC1 [PCM-0102584, NC(=O)C1CCN(C(=O)CCl)CC1]	-15.701	-15.701	0	0				
CC(c1ccc(F)c(F)c1)N(C)C(=O)CCl (stereo not drawn) [PCM-0102438, CC(c1ccc(F)c(F)c1)N(C)C(=O)CCl]	-16.135	-16.135	8	14				
O=C(CCl)N1CCN(Cc2ccccc2)CC1 [PCM-0103063, O=C(CCl)N1CCN(Cc2ccccc2)CC1]				7	-16.178	-16.178	35	
O=C(CCl)NNC(=O)c1ccccc1Cl [PCM-0102954, O=C(CCl)NNC(=O)c1ccccc1Cl]				0	-17.060	-17.060	80	
CC1CCCC(NC(=O)CCl)C1C (stereo not drawn) [PCM-0102663, CC1CCCC(NC(=O)CCl)C1C]	-16.862	-16.862	29	0				
O=C(CCl)NCc1nc2ccccc2s1 [PCM-0102803, O=C(CCl)NCc1nc2ccccc2s1]				0	-16.252	-16.252	37	
Cc1sc(NC(=O)CCl)c(C#N)c1C [PCM-0102202, Cc1sc(NC(=O)CCl)c(C#N)c1C]	-15.804	-15.804	0	0				
O=C(CCl)N1CCc2sccc2C1 [PCM-0102123, O=C(CCl)N1CCc2sccc2C1]	-15.106	-15.106	39	14				
CN(Cc1ccc(Cl)s1)C(=O)CCl [PCM-0102898, CN(Cc1ccc(Cl)s1)C(=O)CCl]				29	-15.575	-15.575	0	
O=C(CCl)N(C1CC1)C1CCS(=O)(=O)C1 (stereo not drawn) [PCM-0102832, O=C(CCl)N(C1CC1)C1CCS(=O)(=O)C1]				0	-16.200	-16.200	43	
O=C(CCl)Nc1nc2c(s1)CCC2 [PCM-0102457, O=C(CCl)Nc1nc2c(s1)CCC2]	-15.357	-15.357	0	37				
O=C(CCl)N1CCN(c2ncc(Cl)cc2Cl)CC1 [PCM-0103022, O=C(CCl)N1CCN(c2ncc(Cl)cc2Cl)CC1]				22	-15.906	-15.906	0	
CC(C)N(C(=O)CCl)C(C)C [PCM-0103023, CC(C)N(C(=O)CCl)C(C)C]				0	-17.155	-17.155	0	
O=C(CCl)Nc1ccc([N+](=O)[O-])cc1C(F)(F)F [PCM-0102406, O=C(CCl)Nc1ccc([N+](=O)[O-])cc1C(F)(F)F]	-16.390	-16.390	0	0				
